Entries after “also recorded” stand apart in the source; their conditions may differ.
What was measured:
[1] = target: T1, Histamine H2 (Homo sapiens, UniProt P25021); assay: Radioligand displacement (Ricerca); assay type: binding
T1 construct: Ricerca (contract laboratory that ran the panel)

[2] = target: T2, Adrenergic α2A (Homo sapiens, UniProt P08913); assay: Radioligand displacement (Ricerca); assay type: binding
T2 construct: Ricerca (contract assay)

[3] = test system: Purinergic P2X; assay: Radioligand displacement (Ricerca); assay type: binding, rabbit; details: 10 μM
[4] = target: T3, EGF (Homo sapiens, UniProt P00533); assay: Radioligand displacement (Ricerca); assay type: binding
T3 construct: Ricerca

[5] = test system: Rolipram (PDE4); assay: Radioligand displacement (Ricerca); assay type: binding, human; details: 10 μM
[6] = test system: L-Type Ca channel (dihydropyridine); assay: Radioligand displacement (Ricerca); assay type: binding, rat; details: 10 μM
[7] = test system: GABAA (muscimol); assay: Radioligand displacement (Ricerca); assay type: binding, rat; details: 10 μM
[8] = Maximal electroshock (MES) model of epilepsy; assay type: in vivo, mouse; details: mice, i.p.; VU0456810 60 mg/kg, sodium valproate 150 mg/kg; vs vehicle
Method: MES stimulation was applied, 30 minutes after injection, through transauricular (ear-clip) electrodes from an electroshock apparatus, HSE Shock Stimulator Type 221, (Harvard Apparatus, Holliston, Mass.) using the following parameters: 100-mA fixed current, a 50-60-Hz pulse frequency, a 0.6-ms pulse width and a 0.3-s stimulus duration. Animals were restrained by hand when applying the electrodes and released at the moment of stimulation to permit observation of the seizure throughout its entire course. Upon completion of the electrical stimulus, the amount of time until death was recorded. […] In this modified MES test, the electrical stimulus that was applied was sufficient to induce seizures and death from maximal seizure in 100% of the control mice.
In all cases, experiments were conducted in a blind manner with respect to the experimenters. Data were evaluated in Excel using one-tailed, unpaired Student's t-test, assuming populations with unequal variance.

T3 sequence (P00533 25-1210): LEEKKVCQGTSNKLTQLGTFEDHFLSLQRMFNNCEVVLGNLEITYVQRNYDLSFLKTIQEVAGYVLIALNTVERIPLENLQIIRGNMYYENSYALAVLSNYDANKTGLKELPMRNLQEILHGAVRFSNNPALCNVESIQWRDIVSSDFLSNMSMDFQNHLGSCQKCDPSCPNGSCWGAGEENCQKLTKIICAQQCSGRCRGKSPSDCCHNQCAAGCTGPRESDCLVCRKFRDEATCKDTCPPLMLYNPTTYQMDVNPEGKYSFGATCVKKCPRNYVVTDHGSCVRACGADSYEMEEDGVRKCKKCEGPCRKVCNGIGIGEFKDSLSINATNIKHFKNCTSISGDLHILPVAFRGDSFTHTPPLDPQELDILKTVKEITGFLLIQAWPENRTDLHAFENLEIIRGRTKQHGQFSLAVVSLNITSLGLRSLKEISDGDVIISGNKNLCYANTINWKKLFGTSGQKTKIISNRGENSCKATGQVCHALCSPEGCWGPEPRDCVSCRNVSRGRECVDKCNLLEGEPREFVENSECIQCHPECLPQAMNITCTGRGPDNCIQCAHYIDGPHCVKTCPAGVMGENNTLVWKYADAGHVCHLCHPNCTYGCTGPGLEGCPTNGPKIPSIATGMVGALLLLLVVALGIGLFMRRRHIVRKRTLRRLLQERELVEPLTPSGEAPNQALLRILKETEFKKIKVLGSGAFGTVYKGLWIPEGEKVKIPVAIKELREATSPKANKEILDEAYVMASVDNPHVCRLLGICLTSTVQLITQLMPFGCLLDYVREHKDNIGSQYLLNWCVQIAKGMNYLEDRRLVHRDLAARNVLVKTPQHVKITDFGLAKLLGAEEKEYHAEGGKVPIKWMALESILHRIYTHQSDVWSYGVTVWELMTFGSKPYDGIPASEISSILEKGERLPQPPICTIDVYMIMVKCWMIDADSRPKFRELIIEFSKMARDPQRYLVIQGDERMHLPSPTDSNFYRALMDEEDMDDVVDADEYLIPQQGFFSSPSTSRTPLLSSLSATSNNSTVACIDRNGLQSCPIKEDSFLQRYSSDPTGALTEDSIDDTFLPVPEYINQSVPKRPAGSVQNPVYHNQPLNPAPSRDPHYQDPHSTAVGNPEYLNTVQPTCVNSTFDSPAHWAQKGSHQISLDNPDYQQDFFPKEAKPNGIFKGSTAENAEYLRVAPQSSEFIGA
T1 sequence (P25021 whole entry): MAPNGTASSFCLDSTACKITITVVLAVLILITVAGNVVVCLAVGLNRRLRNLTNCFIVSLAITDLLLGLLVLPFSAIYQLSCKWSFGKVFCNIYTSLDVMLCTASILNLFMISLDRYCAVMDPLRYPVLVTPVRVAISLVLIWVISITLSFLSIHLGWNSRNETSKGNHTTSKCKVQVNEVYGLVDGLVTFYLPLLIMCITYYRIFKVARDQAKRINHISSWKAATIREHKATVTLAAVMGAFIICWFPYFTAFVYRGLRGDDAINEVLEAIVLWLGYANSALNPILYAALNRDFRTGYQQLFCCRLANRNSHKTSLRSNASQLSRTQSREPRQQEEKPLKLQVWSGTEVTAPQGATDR
T2 sequence (P08913 whole entry): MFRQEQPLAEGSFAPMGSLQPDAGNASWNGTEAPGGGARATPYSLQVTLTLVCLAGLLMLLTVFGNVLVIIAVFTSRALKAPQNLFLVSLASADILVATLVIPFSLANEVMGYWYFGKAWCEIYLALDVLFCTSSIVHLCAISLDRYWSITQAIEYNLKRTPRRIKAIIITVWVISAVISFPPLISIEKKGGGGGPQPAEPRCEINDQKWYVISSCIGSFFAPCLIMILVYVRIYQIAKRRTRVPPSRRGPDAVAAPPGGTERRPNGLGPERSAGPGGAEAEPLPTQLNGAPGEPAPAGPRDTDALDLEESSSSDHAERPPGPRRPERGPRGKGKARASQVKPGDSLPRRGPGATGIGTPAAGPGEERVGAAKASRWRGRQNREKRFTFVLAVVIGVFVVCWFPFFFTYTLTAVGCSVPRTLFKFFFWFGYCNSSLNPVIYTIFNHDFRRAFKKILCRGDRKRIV

Cc1cc(NC(=O)Nc2ccc(F)c(F)c2)n(-c2ccccc2)n1 [VU0456810, 1-(3,4-difluorophenyl)-3-(3-methyl-1-phenyl-1H-pyrazol-5-yl)urea]
inhibition at 10 µM [1]: -2% | inhibition at 10 µM [2]: 4% | % Inhibition [3]: 16% | inhibition at 10 µM [4]: -2% | % Inhibition [5]: 11% | % Inhibition [6]: 3% | % Inhibition [7]: 49% | latency of seizure onset [8]: robust increase; also recorded: highly significant delays in seizure onset

Reference: patent publication US9067894B1, “Compound, composition, and method of activating GIRK potassium channel and use of same for treating conditions of interest” (Vanderbilt University, priority 2013, dated 2015)
